PubChem BioAssay (NCI)
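Each compound was tested at five concentrations against cells in 96-well plates for 48 hours. TGI: total growth inhibition.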

What was measured:
Assay in all cases: growth of human tumour cells (NCI), 48 h
[1] = tested on: 786-0 renal
[2] = tested on: A549 NSCLC
[3] = tested on: ACHN renal
[4] = tested on: CAKI-1 renal
[5] = tested on: CCRF-CEM leukemia
[6] = tested on: COLO 205 colon
[7] = tested on: DLD-1 colon
[8] = tested on: DMS 114 small cell lung
[9] = tested on: EKVX NSCLC
[10] = tested on: HCT-116 colon
[11] = tested on: HCT-15 colon
[12] = tested on: HL-60(TB) leukemia
[13] = tested on: HOP-18 NSCLC
[14] = tested on: HOP-62 NSCLC
[15] = tested on: HOP-92 NSCLC
[16] = tested on: HT29 colon
[17] = tested on: IGROV1 ovarian
[18] = tested on: K-562 leukemia
[19] = tested on: KM12 colon
[20] = tested on: KM20L2 colon
[21] = tested on: LXFL 529 NSCLC
[22] = tested on: M14 melanoma
[23] = tested on: M19-MEL melanoma
[24] = tested on: MALME-3M melanoma
[25] = tested on: MOLT-4 leukemia
[26] = tested on: NCI-H226 lung
[27] = tested on: NCI-H23 lung
[28] = tested on: NCI-H460 lung
[29] = tested on: NCI-H522 lung
[30] = tested on: OVCAR-3 ovarian
[31] = tested on: OVCAR-4 ovarian
[32] = tested on: OVCAR-8 ovarian
[33] = tested on: RPMI-8226 leukemia
[34] = tested on: RXF 393 renal
[35] = tested on: SF-268 CNS
[36] = tested on: SF-295 CNS
[37] = tested on: SF-539 CNS
[38] = tested on: SK-MEL-2 melanoma
[39] = tested on: SK-MEL-28 melanoma
[40] = tested on: SK-MEL-5 melanoma
[41] = tested on: SK-OV-3 ovarian
[42] = tested on: SN12C renal
[43] = tested on: SNB-19 CNS
[44] = tested on: SNB-75 CNS
[45] = tested on: SR leukemia
[46] = tested on: SW-620 colon
[47] = tested on: TK-10 renal
[48] = tested on: U251 CNS
[49] = tested on: UACC-257 melanoma
[50] = tested on: UACC-62 melanoma
[51] = tested on: UO-31 renal
[52] = tested on: DMS 273 small cell lung
[53] = tested on: HCC-2998 colon
[54] = tested on: LOX IMVI melanoma
[55] = tested on: OVCAR-5 ovarian
[56] = tested on: SNB-78 CNS

Measured: TGI

CC(C)[C@H]1CO[C@@H]2O[C@H](C)CC(=O)N21
> 100 µM: [1] | [2] | [3] | [4] | [5] | [6] | [7] | [8] | [9] | [10] | [11] | [12] | [13] | [14] | [15] | [16] | [17] | [18] | [19] | [20] | [21] | [22] | [23] | [24] | [25] | [26] | [27] | [28] | [29] | [30] | [31] | [32] | [33] | [34] | [35] | [36] | [37] | [38] | [39] | [40] | [41] | [42] | [43] | [44] | [45] | [46] | [47] | [48] | [49] | [50] | [51]

CC1C(/C=C/c2ccoc2)ON2CCCC12 (stereo not given)
> 100 µM: [1] | [3] | [4] | [6] | [7] | [52] | [9] | [53] | [12] | [13] | [15] | [16] | [20] | [54] | [21] | [23] | [24] | [26] | [27] | [28] | [29] | [31] | [55] | [32] | [34] | [35] | [36] | [37] | [38] | [39] | [42] | [43] | [44] | [56] | [46] | [47] | [48] | [49] | [51]
